Data published in patent US20070293477A1, “Novel Compounds” (SMITHKLINE BEECHAM CORPORATION, priority 2004, published 2007).

How the values were obtained:
TRPV4 channel receptor = target: T1, TRPV4 channel receptor (Homo sapiens, UniProt Q9HBA0); experiment: FLIPR assay using TRPV4 expressing HEK cells; format: cell-based; settings: FLIPR method; pEC50 = −log10(EC50 μM)
T1 construct: expressed in transfected cells; host or cells: HEK cells
Source text: Other techniques used to measure TRPV4 channel receptor activation in chondrocytes include, but are not limited to: FLIPR assay, measuring a compound's capability to reduce the amount of ADAMTSs produced and/or released in response to a catabolic stimulus by a cell comprising a TRPV4 channel receptor; measuring a compound's capability to reduce the amount of MMPs produced and/or released in response to a catabolic stimulus by a cell comprising a TRPV4 channel receptor; measuring a compound's capability to effect the amount of nitric oxide (NO) produced in response to a catabolic stimulus by a cell comprising a TRPV4 channel receptor; and measuring a compound's capability to attenuate the inhibition of matrix synthesis in response to a catabolic stimulus by a cell comprising a TRPV4 channel receptor.
(§1) All exemplary compounds of the present invention were assessed using at least one of the biological assays presented above. Compounds presented in the Examples had EC50 values of about 0.01 μM to about 30 μM as measured by Flex Station using bovine articular chondrocytes and pEC50 values between about 4.5 to about 7.0 as measured by FLIPR assay using TRPV4 expressing HEK cells.

TRPV4 channel receptors = target: T2, TRPV4 channel receptors (Bos taurus, UniProt A0A8F4X677); experiment: Ca2+ influx, Fura-2 fluorescence on FlexStation in bovine articular chondrocytes; format: cell-based; settings: Fura-2, FlexStation
T2 construct: obtained using this method in bovine articular chondrocytes; endogenous in cells; host or cells: bovine articular chondrocytes
Source text: Ca^2+ influx mediated through TRPV4 channel receptors can be measured using articular chondrocytes from such species as, but not limited to, human, rat, canine, rabbit, monkey, and bovine, using standard techniques in the art such as, but not limited to, Fura-2 (Invitrogen/Molecular Probes, Eugene, Oreg.) fluorescence using a FlexStation (manufactured by Molecular Devices, Sunnyvale, Calif.). Table 1 lists biological data for several representative compounds obtained using this method in bovine articular chondrocytes.
as §1

T2 sequence (A0A8F4X677 1-871): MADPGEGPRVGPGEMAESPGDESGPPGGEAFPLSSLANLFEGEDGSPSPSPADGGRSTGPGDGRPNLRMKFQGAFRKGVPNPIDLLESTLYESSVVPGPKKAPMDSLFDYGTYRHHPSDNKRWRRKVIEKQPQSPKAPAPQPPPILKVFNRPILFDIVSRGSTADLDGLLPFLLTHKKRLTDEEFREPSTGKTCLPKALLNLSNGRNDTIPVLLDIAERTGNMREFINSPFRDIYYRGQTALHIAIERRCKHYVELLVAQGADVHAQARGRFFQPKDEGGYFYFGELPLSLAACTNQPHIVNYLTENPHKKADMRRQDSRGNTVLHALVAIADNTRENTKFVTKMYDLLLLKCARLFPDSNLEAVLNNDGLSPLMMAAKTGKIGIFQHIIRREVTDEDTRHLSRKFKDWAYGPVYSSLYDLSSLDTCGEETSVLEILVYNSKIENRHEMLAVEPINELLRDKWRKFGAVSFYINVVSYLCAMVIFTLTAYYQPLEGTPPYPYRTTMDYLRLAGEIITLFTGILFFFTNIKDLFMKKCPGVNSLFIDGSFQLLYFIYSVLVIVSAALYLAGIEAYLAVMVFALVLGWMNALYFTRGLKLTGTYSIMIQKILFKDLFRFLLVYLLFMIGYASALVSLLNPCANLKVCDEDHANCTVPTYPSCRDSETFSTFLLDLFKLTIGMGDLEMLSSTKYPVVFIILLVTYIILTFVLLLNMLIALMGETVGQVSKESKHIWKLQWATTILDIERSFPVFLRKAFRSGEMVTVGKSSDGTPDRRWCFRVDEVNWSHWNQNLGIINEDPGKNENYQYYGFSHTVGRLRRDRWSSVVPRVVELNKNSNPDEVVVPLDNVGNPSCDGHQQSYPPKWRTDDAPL
T1 sequence (Q9HBA0 whole entry): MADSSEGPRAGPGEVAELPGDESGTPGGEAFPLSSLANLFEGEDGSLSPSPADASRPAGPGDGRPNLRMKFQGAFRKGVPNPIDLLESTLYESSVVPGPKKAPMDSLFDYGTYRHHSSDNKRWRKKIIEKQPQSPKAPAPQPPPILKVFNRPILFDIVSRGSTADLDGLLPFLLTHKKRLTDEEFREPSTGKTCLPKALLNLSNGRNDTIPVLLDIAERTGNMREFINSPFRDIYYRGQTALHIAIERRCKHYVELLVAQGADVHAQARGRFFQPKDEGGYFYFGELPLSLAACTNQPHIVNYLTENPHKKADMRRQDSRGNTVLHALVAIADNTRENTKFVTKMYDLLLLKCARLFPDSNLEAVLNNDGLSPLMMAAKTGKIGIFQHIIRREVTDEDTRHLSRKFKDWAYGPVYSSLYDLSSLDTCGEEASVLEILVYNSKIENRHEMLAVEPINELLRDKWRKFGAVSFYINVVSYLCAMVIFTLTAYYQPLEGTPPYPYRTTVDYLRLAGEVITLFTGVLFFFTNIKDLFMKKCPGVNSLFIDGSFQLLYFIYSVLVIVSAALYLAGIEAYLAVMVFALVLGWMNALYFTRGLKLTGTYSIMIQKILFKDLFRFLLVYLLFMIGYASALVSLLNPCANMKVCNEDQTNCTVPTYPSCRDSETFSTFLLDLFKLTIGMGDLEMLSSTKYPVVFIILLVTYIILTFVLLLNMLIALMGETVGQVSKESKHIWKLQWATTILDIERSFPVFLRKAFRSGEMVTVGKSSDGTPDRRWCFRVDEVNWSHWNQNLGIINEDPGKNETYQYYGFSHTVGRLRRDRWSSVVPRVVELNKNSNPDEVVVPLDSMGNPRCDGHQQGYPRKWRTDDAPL

Row | Structure (SMILES) | EC50 (TRPV4 channel receptor) [µM] | EC50 (TRPV4 channel receptors) [µM]
1 | CC(C)C[C@H](NC(=O)c1cc2ccccc2s1)C(=O)N[C@@H]1CCCN(S(=O)(=O)c2ccc(Cl)cc2Cl)CC1 [Example 6, N-{(1S)-1-[({(4R)-1-[(2,4-Dichlorophenyl)sulfonyl]hexahydro-1H-azepin-4-yl}amino)carbonyl]-3-methylbutyl}-1-benzothiophene-2-carboxamide] | 0.1 to 0.794 | –
2 | CC(C)C[C@H](NC(=O)c1cc2ccccc2s1)C(=O)N[C@@H]1CCCN(S(=O)(=O)c2ccc(C#N)cc2)CC1 [Example 8, N-{(1S)-1-[({(4R)-1-[(4-Cyanophenyl)sulfonyl]hexahydro-1H-azepin-4-yl}amino)carbonyl]-3-methylbutyl}-1-benzothiophene-2-carboxamide] | – | 10 to 30

Further lines, results first:

Row | EC50 (TRPV4 channel receptor) [µM] | EC50 (TRPV4 channel receptors) [µM] | Structure (SMILES)
3 | 10 to 31.6 | – | CC(C)C[C@H](NC(=O)c1cc2ccccc2n1C)C(=O)NC1CCCN(S(=O)(=O)c2ccc(Cl)cc2)CC1 (mixture of isomers) [Example 3, 1-Methyl-1H-indole-2-carboxylic acid {(S)-1-[1-(4-chloro-benzenesulfonyl)-azepan-4-ylcarbamoyl]-3-methyl-butyl}-amide]
4 | – | 0.14 to 1 | CC(C)C[C@H](NC(=O)c1cc2ccccc2s1)C(=O)N[C@@H]1CCCN(S(=O)(=O)c2ccccc2C#N)CC1 [Example 5, N-{(1S)-1-[({(4R)-1-[(2-cyanophenyl)sulfonyl]hexahydro-1H-azepin-4-yl}amino)carbonyl]-3-methylbutyl}-1-benzothiophene-2-carboxamide]
5 | 1 to 7.94 | 1.01 to 10 | CC(C)C[C@H](NC(=O)c1cc2ccccc2n1C)C(=O)N(C)C1CCCN(S(=O)(=O)c2ccccc2C#N)CC1 (stereo partly drawn) [Example 11, N-((1S)-1-{[{1-[(2-Cyanophenyl)sulfonyl]hexahydro-1H-azepin-4-yl}(methyl)amino]carbonyl}-3-methylbutyl)-1-methyl-1H-indole-2-carboxamide]
